{"source": "patent US7745479B2", "about": "“1,5-substituted indol-2-yl amide derivatives” (Hoffmann-La Roche Inc., priority 2005, dated 2010)", "biological_target": "T1, histamine 3 receptor (H3R) (Homo sapiens, UniProt Q9Y5N1)", "T1 construct": "expressed in transfected cells; host or cells: CHO cells (HR3-CHO cell line), membrane preparation", "T1 sequence (Q9Y5N1 whole entry)": "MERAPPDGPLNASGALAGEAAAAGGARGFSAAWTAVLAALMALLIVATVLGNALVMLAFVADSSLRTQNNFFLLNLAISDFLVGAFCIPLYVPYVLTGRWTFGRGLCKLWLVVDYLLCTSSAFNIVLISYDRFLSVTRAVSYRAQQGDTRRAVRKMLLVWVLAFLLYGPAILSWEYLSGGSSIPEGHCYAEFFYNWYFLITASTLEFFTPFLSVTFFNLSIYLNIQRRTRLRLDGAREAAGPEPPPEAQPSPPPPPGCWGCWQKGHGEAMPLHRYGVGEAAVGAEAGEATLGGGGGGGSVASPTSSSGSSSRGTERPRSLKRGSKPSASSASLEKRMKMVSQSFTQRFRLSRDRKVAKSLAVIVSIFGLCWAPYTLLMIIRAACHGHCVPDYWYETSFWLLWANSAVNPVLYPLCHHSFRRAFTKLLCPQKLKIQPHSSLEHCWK", "test": "Competition binding assay with 3H-(R)α-methylhistamine on membranes of the human HR3-CHO cell line", "conditions": "competition with 3H(R)α-Methylhistamine (1 nM), Ki calculated from IC50 by Cheng-Prusoff equation", "experimental": "Binding Assay with ^3H-(R)α-methylhistamine\nSaturation binding experiments were performed using HR3-CHO membranes prepared as described in Takahashi, K, Tokita, S., Kotani, H. (2003) J. Pharmacol. Exp. Therapeutics 307, 213-218.\nAn appropriate amount of membrane (60 to 80 μg protein/well) was incubated with increasing concentrations of ^3H(R)α-Methylhistamine di-hydrochloride (0.10 to 10 nM). Non specific binding was determined using a 200 fold excess of cold (R)α-Methylhistamine dihydrobromide (500 nM final concentration). The incubation was carried out at room temperature (in deep-well plates shaking for three hours). The final volume in each well was 250 μl. […] After harvesting, the plates were dried at 55° C. for 60 min, then scintillation fluid (Microscint 40, 40 microl in each well) was added and the amount of radioactivity on the filter was determined with a Packard top-counter after shaking the plates for two hours at 200 rpm at room temperature. • Binding Buffer: 50 mM Tris-HCl pH 7.4 and 5 mM MgCl2x6H2O pH 7.4. […]\nAn appropriate amount of protein, e.g. approximately 500 cpm binding of RAMH at Kd, were incubated for 1 hour at room temperature in 250 μl final volume in 96-well plates in presence of ^3H(R)α-Methylhistamine (1 nM final concentration=Kd). Non-specific binding was determined using a 200 fold excess of cold (R)α-Methylhistamine dihydrobromide. […]"}
{"smiles": "CC(C)N1CCC(Oc2ccc3c(c2)cc(C(=O)N2CCC(F)(F)CC2)n3-c2ccnc(Cl)c2)CC1", "note": "[Example 9, [1-(2-Chloro-pyridin-4-yl)-5-(1-isopropyl-piperidin-4-yloxy)-1H-indol-2-yl]-(4,4-difluoro-piperidin-1-yl)-methanone]", "values": [{"measurement": "Ki", "result": 2, "unit": "nM"}]}
